Values of other authors as cited in patent US20250216408A1, “REAGENT COMBINATION AND METHOD FOR DETECTING TARGET IMMUNOSUPPRESSANT IN WHOLE BLOOD WITHOUT CENTRIFUGATION” (Shenzhen New Industries Biomedical Engineering co., Ltd., priority 2023, published 2025).

Tests used:
[1] = FK506 in plasma

Compound | Share of drug in whole blood taken up by / present in / bound to red blood cells | Plasma protein binding rate [1]
CO[C@H]1C[C@@H]2CC[C@@H](C)[C@@](O)(O2)C(=O)C(=O)N2CCCC[C@H]2C(=O)O[C@H]([C@H](C)C[C@@H]2CC[C@@H](O)[C@H](OC)C2)CC(=O)[C@H](C)/C=C(\C)[C@@H](O)[C@@H](OC)C(=O)[C@H](C)C[C@H](C)/C=C/C=C/C=C/1C [sirolimus] | 95% | –
C=CC[C@@H]1/C=C(\C)C[C@H](C)C[C@H](OC)[C@H]2O[C@@](O)(C(=O)C(=O)N3CCCC[C@H]3C(=O)O[C@H](/C(C)=C/[C@@H]3CC[C@@H](O)[C@H](OC)C3)[C@H](C)[C@@H](O)CC1=O)[C@H](C)C[C@@H]2OC [FK506, tacrolimus] | 75%-80% | over 98%
